Measured values as given in patent US12673945B2, “3-((8-((1H-pyrazol-4-yl)amino)imidazo[1,2-a]pyridin-3-yl)ethinyl)-n-phenylbenzamide derivative, method for preparing same, and pharmaceutical composition containing same as active ingredient for prevention or treatment of cancer” (DAEGU-GYEONGBUK MEDICAL INNOVATION FOUNDATION, priority 2020, dated 2026).

What was measured:
Assay type in all cases: cell-based
Parental (Ba/F3) = experiment: Ba/F3 cell proliferation inhibition; conditions: BaF3; 72 hours, Cell Counting Kit-8
Description: (§1) […] lymphocyte cells, Parental (Ba/F3) and T315I-Bcr-Abl (Ba/F3) were seeded in 96-well plates at the density of 1×10^4/90 μL/well. A culture solution containing 9 concentrations (0.015 to 100 μM) of each example compound serially diluted in 3 folds or DMSO (control) were added to the plate ([…]) to a final concentration of 0 to 10 μM. The plate was incubated in a 37° C. CO2 incubator for 72 hours.
(§2) After incubation for 72 hours, the plate treated with the compound was treated with Cell Counting Kit-8 (Dojindo Molecular Technologies, Inc) solution at the concentration of 10 μL/well, and then mixed well. Then, the plate was incubated in a CO2 incubator at 37° C. for 2 hours, and absorbance at 450 nm was measured with a microplate reader. Data were expressed as percentage compared to vehicle treated cells and GI50 values were calculated using GraphPad Prism 5.0 (GraphPad software Inc., San Diego) GraphPad Prism 5.0.

T315I-Bcr-Abl (Ba/F3) = experiment: Ba/F3 cell proliferation inhibition; conditions: BaF3; 72 hours, Cell Counting Kit-8
Description: as §1, §2

KOPM28 cells = experiment: human CML cell proliferation inhibition; conditions: 72 hours, Cell Counting Kit-8
Description: (§3) In order to evaluate the therapeutic effect of the compound according to the present invention on chronic myelogenous leukemia (CML), the following experiment was performed, and the results are shown in Table 6 below. Inhibitory activity to Bcr-Abl kinase was evaluated through the experiment using TCCS and KOPM28 cells, and inhibitory activity to T315I-Bcr-Abl kinase was evaluated through the experiment using T315I-TCCS and T315I-KOPM28 cells.
(§4) Human chronic myelogenous leukemia (CML) cells used in the experiment were TCCS, T315I-TCCS, KOPM28 and T315I-KOPM28, and the four types of cells were provided by University of Yamanashi.
(§5) Four types of human CML cells were each seeded in 96-well plates at the density of 1×10^4/90 μL/well. A culture solution containing 9 concentrations (0.000256 to 100 μM) of each example compound serially diluted in 5 folds or DMSO (control) were added to the plate (10 μL/well) to a final concentration of 0 to 10 μM. The plate was incubated in a 37° C. CO2 incubator for 72 hours.
as §2, with “8.0” for “5.0”, “Diego).” for “Diego) GraphPad Prism 5.0.”

T315I-KOPM28 cells = experiment: human CML cell proliferation inhibition; conditions: 72 hours, Cell Counting Kit-8
Description: as §3, §4, §5
as §2, with “8.0” for “5.0”, “Diego).” for “Diego) GraphPad Prism 5.0.”

T315I-TCCS cells = experiment: human CML cell proliferation inhibition; conditions: 72 hours, Cell Counting Kit-8
Description: as §3, §4, §5
as §2, with “8.0” for “5.0”, “Diego).” for “Diego) GraphPad Prism 5.0.”

TCCS cells = experiment: human CML cell proliferation inhibition; conditions: 72 hours, Cell Counting Kit-8
Description: as §3, §4, §5
as §2, with “8.0” for “5.0”, “Diego).” for “Diego) GraphPad Prism 5.0.”

GI50 (T315I-Bcr-Abl (Ba/F3))	Compound	GI50 (Parental (Ba/F3))	GI50 (KOPM28 cells)	GI50 (T315I-KOPM28 cells)	GI50 (T315I-TCCS cells)	GI50 (TCCS cells)
< 50 nM	Cc1ccc(C(=O)Nc2cc(Oc3ccncc3)cc(C(F)(F)F)c2)c(F)c1C#Cc1cnc2c(Nc3cnn(C)c3)cccn12 [Example 9, 2-fluoro-4-methyl-3-((8-((1-methyl-1H-pyrazol-4-yl)amino)imidazo[1,2-a]pyridin-3-yl)ethynyl)-N-(3-(pyridin-4-yloxy)-5-(trifluoromethyl)phenyl)benzamide]	> 5000 nM	< 10 nM	100 nM	100 nM	< 10 nM
< 50 nM	Cc1cc(F)c(C(=O)Nc2cc(CN3CCN(CCO)CC3)cc(C(C)(C)C#N)c2)cc1C#Cc1cnc2c(Nc3cnn(C)c3)cccn12 [Example 10, N-(3-(2-cyanopropan-2-yl)-5-((4-(2-hydroxyethyl)piperazin-1-yl)methyl)phenyl)-2-fluoro-4-methyl-5-((8-((1-methyl-1H-pyrazol-4-yl)amino)imidazo[1,2-a]pyridin-3-yl)ethynyl)benzamide]	500 to 5000 nM	< 10 nM	100 nM	100 nM	< 10 nM
< 50 nM	Cc1c(F)cc(C(=O)Nc2cc(CN3CCN(CCO)CC3)cc(C(C)(C)C#N)c2)cc1C#Cc1cnc2c(Nc3cnn(C)c3)cccn12 [Example 11, N-(3-(2-cyanopropan-2-yl)-5-((4-(2-hydroxyethyl)piperazin-1-yl)methyl)phenyl)-3-fluoro-4-methyl-5-((8-((1-methyl-1H-pyrazol-4-yl)amino)imidazo[1,2-a]pyridin-3-yl)ethynyl)benzamide]	> 5000 nM	< 10 nM	100 nM	< 10 nM	< 10 nM
50 to 500 nM	Cc1ccc(C(=O)Nc2cc(CN3CCN(CCO)CC3)cc(C(C)(C)C#N)c2)c(F)c1C#Cc1cnc2c(Nc3cnn(C)c3)cccn12 [Example 12, N-(3-(2-cyanopropan-2-yl)-5-((4-(2-hydroxyethyl)piperazin-1-yl)methyl)phenyl)-2-fluoro-4-methyl-3-((8-((1-methyl-1H-pyrazol-4-yl)amino)imidazo[1,2-a]pyridin-3-yl)ethynyl)benzamide]	> 5000 nM	< 10 nM	> 100 nM	100 nM	< 10 nM
< 50 nM	Cc1cn(-c2cc(NC(=O)c3cc(C#Cc4cnc5c(Nc6cnn(C)c6)cccn45)c(C)cc3Cl)cc(C(C)(C)C#N)c2)cn1 [Example 13, 2-chloro-N-(3-(2-cyanopropan-2-yl)-5-(4-methyl-1H-imidazol-1-yl)phenyl)-4-methyl-5-((8-((1-methyl-1H-pyrazol-4-yl)amino)imidazo[1,2-a]pyridin-3-yl)ethynyl)benzamide]	> 5000 nM	< 10 nM	100 nM	< 10 nM	< 10 nM
< 50 nM	Cc1cn(-c2cc(NC(=O)c3cc(C#Cc4cnc5c(Nc6cnn(C)c6)cccn45)c(C)cc3Cl)cc(C(F)(F)F)c2)cn1 [Example 14, 2-chloro-4-methyl-N-(3-(4-methyl-1H-imidazol-1-yl)-5-(trifluoromethyl)phenyl)-5-((8-((1-methyl-1H-pyrazol-4-yl)amino)imidazo[1,2-a]pyridin-3-yl)ethynyl)benzamide]	> 5000 nM	< 10 nM	100 nM	100 nM	< 10 nM
< 50 nM	Cc1cc(Cl)c(C(=O)Nc2cc(Oc3ccncc3)cc(C(F)(F)F)c2)cc1C#Cc1cnc2c(Nc3cnn(C)c3)cccn12 [Example 15, 2-chloro-4-methyl-5-((8-((1-methyl-1H-pyrazol-4-yl)amino)imidazo[1,2-a]pyridin-3-yl)ethynyl)-N-(3-(pyridin-4-yloxy)-5-(trifluoromethyl)phenyl)benzamide]	> 5000 nM	< 10 nM	< 10 nM	< 10 nM	< 10 nM
50 to 500 nM	Cc1cc(Cl)c(C(=O)Nc2cc(CN3CCN(CCO)CC3)cc(C(C)(C)C#N)c2)cc1C#Cc1cnc2c(Nc3cnn(C)c3)cccn12 [Example 16, 2-chloro-N-(3-(2-cyanopropan-2-yl)-5-((4-(2-hydroxyethyl)piperazin-1-yl)methyl)phenyl)-4-methyl-5-((8-((1-methyl-1H-pyrazol-4-yl)amino)imidazo[1,2-a]pyridin-3-yl)ethynyl)benzamide]	> 5000 nM	< 10 nM	100 nM	100 nM	< 10 nM
50 to 500 nM	Cc1cc(F)c(C(=O)Nc2cc(-c3ccncc3)cc(C(C)(C)C#N)c2)cc1C#Cc1cnc2c(Nc3cnn(C)c3)cccn12 [Example 17, N-(3-(2-cyanopropan-2-yl)-5-(pyridin-4-yl)phenyl)-2-fluoro-4-methyl-5-((8-((1-methyl-1H-pyrazol-4-yl)amino)imidazo[1,2-a]pyridin-3-yl)ethynyl)benzamide]	> 5000 nM	< 10 nM	100 nM	100 nM	< 10 nM

Further lines, the compound ahead of its results:

Compound	GI50 (T315I-Bcr-Abl (Ba/F3))	GI50 (Parental (Ba/F3))	GI50 (KOPM28 cells)	GI50 (T315I-KOPM28 cells)	GI50 (T315I-TCCS cells)	GI50 (TCCS cells)
Cc1cn(-c2cc(NC(=O)c3cc(F)c(C)c(C#Cc4cnc5c(Nc6cnn(C)c6)cccn45)c3)cc(C(C)(C)C#N)c2)cn1 [Example 2, N-(3-(2-cyanopropan-2-yl)-5-(4-methyl-1H-imidazol-1-yl)phenyl)-3-fluoro-4-methyl-5-((8-((1-methyl-1H-pyrazol-4-yl)amino)imidazo[1,2-a]pyridin-3-yl)ethynyl)benzamide]	< 50 nM	> 5000 nM	< 10 nM	100 nM	< 10 nM	< 10 nM
Cc1cn(-c2cc(NC(=O)c3ccc(C)c(C#Cc4cnc5c(Nc6cnn(C)c6)cccn45)c3F)cc(C(C)(C)C#N)c2)cn1 [Example 3, N-(3-(2-cyanopropan-2-yl)-5-(4-methyl-1H-imidazol-1-yl)phenyl)-2-fluoro-4-methyl-3-((8-((1-methyl-1H-pyrazol-4-yl)amino)imidazo[1,2-a]pyridin-3-yl)ethynyl)benzamide]	< 50 nM	> 5000 nM	< 10 nM	100 nM	100 nM	< 10 nM
Cc1cn(-c2cc(NC(=O)c3cc(F)c(C)c(C#Cc4cnc5c(Nc6cnn(C)c6)cccn45)c3)cc(C(F)(F)F)c2)cn1 [Example 5, 3-fluoro-4-methyl-N-(3-(4-methyl-1H-imidazol-1-yl)-5-(trifluoromethyl)phenyl)-5-((8-((1-methyl-1H-pyrazol-4-yl)amino)imidazo[1,2-a]pyridin-3-yl)ethynyl)benzamide]	< 50 nM	> 5000 nM	100 nM	100 nM	100 nM	100 nM
Cc1cn(-c2cc(NC(=O)c3ccc(C)c(C#Cc4cnc5c(Nc6cnn(C)c6)cccn45)c3F)cc(C(F)(F)F)c2)cn1 [Example 6, 2-fluoro-4-methyl-N-(3-(4-methyl-1H-imidazol-1-yl)-5-(trifluoromethyl)phenyl)-3-((8-((1-methyl-1H-pyrazol-4-yl)amino)imidazo[1,2-a]pyridin-3-yl)ethynyl)benzamide]	50 to 500 nM	> 5000 nM	100 nM	> 100 nM	100 nM	< 10 nM
Cc1cc(F)c(C(=O)Nc2cc(Oc3ccncc3)cc(C(F)(F)F)c2)cc1C#Cc1cnc2c(Nc3cnn(C)c3)cccn12 [Example 7, 2-fluoro-4-methyl-5-((8-((1-methyl-1H-pyrazol-4-yl)amino)imidazo[1,2-a]pyridin-3-yl)ethynyl)-N-(3-(pyridin-4-yloxy)-5-(trifluoromethyl)phenyl)benzamide]	< 50 nM	> 5000 nM	< 10 nM	< 10 nM	< 10 nM	< 10 nM
Cc1c(F)cc(C(=O)Nc2cc(Oc3ccncc3)cc(C(F)(F)F)c2)cc1C#Cc1cnc2c(Nc3cnn(C)c3)cccn12 [Example 8, 3-fluoro-4-methyl-5-((8-((1-methyl-1H-pyrazol-4-yl)amino)imidazo[1,2-a]pyridin-3-yl)ethynyl)-N-(3-(pyridin-4-yloxy)-5-(trifluoromethyl)phenyl)benzamide]	< 50 nM	> 5000 nM	< 10 nM	100 nM	100 nM	< 10 nM
